According to US9606106B2, “NMR-based metabolite screening platform” (THE CHILDREN'S MEDICAL CENTER CORPORATION, priority 2012, dated 2017):

System: BPLER cells
Assay: cell migration assay (dual-chamber with small pores)
Assay type: cell-based, human
Conditions: cells transfected with siRNAs against NANS or CMAS, supplemented with NANA
Experimental: However, NANA is incorporated on the cell surface of several proteins involved in cell adhesion, and loss of NANA was suspected to affect cell motility. Using a cell migration assay, cells were cultured in a dual-chamber containing small pores at the bottom of the top chamber, malignant cells (especially those with metastatic potential) are able to migrate through the pores and form colonies. As expected, shown in FIG. 12 BPLER have an increased migration rate as compared to HMLER cells due to their increased turmorigenic properties. […] To confirm NANA expression directly influences motility, a rescue experiment was performed in which cells transfected with siRNAs against NANS or CMAS were supplemented NANA. […] Monitoring NANA expression could predict the metastatic potential of a cell. In addition both NANS/CMAS are novel key targets to manipulate migration and metastasis.

CC(=O)N[C@H]1[C@H]([C@H](O)[C@H](O)CO)OC(O)(C(=O)O)C[C@@H]1O (stereo partly shown) [NANA, N-acetylneuraminic acid]
rescue of migration phenotype: partially restore
